Assay results published in patent publication US5556744A, “Methods and compositions for diagnosing and treating certain HIV infected patients” (The Trustees of the University of Pennsylvania, priority 1994, dated 1996).

How the values were obtained:
[1] = test system: maternal HIV+ sera (antibodies); assay: RIA / ELISA binding of maternal HIV+ sera to gp120 and gp41 peptides (Example 3); set-up: species or system human
Outline: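 Maternal sera, diluted 1:50 and 1:500, were bound overnight at 4°C to peptides immobilized at 10 μg/ml (pH 9.6 carbonate) and blocked with 1% BSA. Read-out was ¹²⁵I-labelled anti-human IgG counts or HRP-TMB OD450. Signal with peptide minus without was expressed relative to seronegative serum.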

[2] = test system: maternal sera (antibodies); assay: ELISA peptide-binding of maternal sera (Example 6); set-up: species or system human; settings: for Number of Non-Transmitters which bound to peptide / Percent of Non-Transmitters which bound to peptide: N = 12; for Number of Transmitters which bound to peptide / Percent of Transmitters which bound to peptide: N = 4
Outline: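 HIV-1 envelope peptides averaging 16 amino acids, covering external and transmembrane glycoprotein, were probed by ELISA. Third-trimester maternal sera, classed as transmitter or non-transmitter by child diagnosis, were each run on at least 40 peptides. Values give percent of sera binding a peptide.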

[3] = Serum No. 1, Non-Transmission Group
[4] = Serum No. 2, Non-Transmission Group
[5] = Serum No. 3, Non-Transmission Group
[6] = Serum No. 4, Transmission Group
[7] = Serum No. 5, Transmission Group
[8] = Serum No. 6, Non-Transmission Group
[9] = Serum No. 7, Non-Transmission Group
[10] = Serum No. 8, Non-Transmission Group
[11] = Serum No. 9, Non-Transmission Group
[12] = Serum No. 10, Transmission Group
[13] = Serum No. 11, Non-Transmission Group
[14] = Serum No. 12, Non-Transmission Group
[15] = Serum No. 13, Transmission Group
[16] = Serum No. 14, Transmission Group
[17] = Serum No. 15, Transmission Group
[18] = Serum No. 16, Non-Transmission Group
[19] = Serum No. 17, Non-Transmission Group
[20] = Serum No. 18, Non-Transmission Group
[21] = Serum No. 19, Transmission Group
[22] = Serum No. 20, Non-Transmission Group

Sequence | Binding of maternal HIV+ serum to peptide (sera/NHS ratio) [1, 3] | Binding of maternal HIV+ serum to peptide (sera/NHS ratio) [1, 4] | Binding of maternal HIV+ serum to peptide (sera/NHS ratio) [1, 5] | Binding of maternal HIV+ serum to peptide (sera/NHS ratio) [1, 6] | Binding of maternal HIV+ serum to peptide (sera/NHS ratio) [1, 7] | Binding of maternal HIV+ serum to peptide (sera/NHS ratio) [1, 8] | Binding of maternal HIV+ serum to peptide (sera/NHS ratio) [1, 9] | Binding of maternal HIV+ serum to peptide (sera/NHS ratio) [1, 10] | Binding of maternal HIV+ serum to peptide (sera/NHS ratio) [1, 11] | Binding of maternal HIV+ serum to peptide (sera/NHS ratio) [1, 12] | Binding of maternal HIV+ serum to peptide (sera/NHS ratio) [1, 13] | Binding of maternal HIV+ serum to peptide (sera/NHS ratio) [1, 14] | Binding of maternal HIV+ serum to peptide (sera/NHS ratio) [1, 15] | Binding of maternal HIV+ serum to peptide (sera/NHS ratio) [1, 16] | Binding of maternal HIV+ serum to peptide (sera/NHS ratio) [1, 17] | Binding of maternal HIV+ serum to peptide (sera/NHS ratio) [1, 18] | Binding of maternal HIV+ serum to peptide (sera/NHS ratio) [1, 19] | Binding of maternal HIV+ serum to peptide (sera/NHS ratio) [1, 20] | Binding of maternal HIV+ serum to peptide (sera/NHS ratio) [1, 21] | Binding of maternal HIV+ serum to peptide (sera/NHS ratio) [1, 22] | other results
DREINNYTSLIHSLI [Peptide 40] | - (specific OD450 or cpm of sera sample binding to peptide divided by the specific OD450 or cpm of NHS sample binding to peptide, which value is less than 2) | - (specific OD450 or cpm of sera sample binding to peptide divided by the specific OD450 or cpm of NHS sample binding to peptide, which value is less than 2) | - (specific OD450 or cpm of sera sample binding to peptide divided by the specific OD450 or cpm of NHS sample binding to peptide, which value is less than 2) | - (specific OD450 or cpm of sera sample binding to peptide divided by the specific OD450 or cpm of NHS sample binding to peptide, which value is less than 2) | - (specific OD450 or cpm of sera sample binding to peptide divided by the specific OD450 or cpm of NHS sample binding to peptide, which value is less than 2) | - (specific OD450 or cpm of sera sample binding to peptide divided by the specific OD450 or cpm of NHS sample binding to peptide, which value is less than 2) | - (specific OD450 or cpm of sera sample binding to peptide divided by the specific OD450 or cpm of NHS sample binding to peptide, which value is less than 2) | - (specific OD450 or cpm of sera sample binding to peptide divided by the specific OD450 or cpm of NHS sample binding to peptide, which value is less than 2) | - (specific OD450 or cpm of sera sample binding to peptide divided by the specific OD450 or cpm of NHS sample binding to peptide, which value is less than 2) | - (specific OD450 or cpm of sera sample binding to peptide divided by the specific OD450 or cpm of NHS sample binding to peptide, which value is less than 2) | - (specific OD450 or cpm of sera sample binding to peptide divided by the specific OD450 or cpm of NHS sample binding to peptide, which value is less than 2) | - (specific OD450 or cpm of sera sample binding to peptide divided by the specific OD450 or cpm of NHS sample binding to peptide, which value is less than 2) | - (specific OD450 or cpm of sera sample binding to peptide divided by the specific OD450 or cpm of NHS sample binding to peptide, which value is less than 2) | - (specific OD450 or cpm of sera sample binding to peptide divided by the specific OD450 or cpm of NHS sample binding to peptide, which value is less than 2) | - (specific OD450 or cpm of sera sample binding to peptide divided by the specific OD450 or cpm of NHS sample binding to peptide, which value is less than 2) | - (specific OD450 or cpm of sera sample binding to peptide divided by the specific OD450 or cpm of NHS sample binding to peptide, which value is less than 2) | - (specific OD450 or cpm of sera sample binding to peptide divided by the specific OD450 or cpm of NHS sample binding to peptide, which value is less than 2) | - (specific OD450 or cpm of sera sample binding to peptide divided by the specific OD450 or cpm of NHS sample binding to peptide, which value is less than 2) | - (specific OD450 or cpm of sera sample binding to peptide divided by the specific OD450 or cpm of NHS sample binding to peptide, which value is less than 2) | - (specific OD450 or cpm of sera sample binding to peptide divided by the specific OD450 or cpm of NHS sample binding to peptide, which value is less than 2) | Number of Non-Transmitters which bound to peptide [2]: 1; Percent of Non-Transmitters which bound to peptide [2]: 8.3%; Number of Transmitters which bound to peptide [2]: 0; Percent of Transmitters which bound to peptide [2]: 0%
RIQRGPGRAFVTIGK [p18p] | - (specific OD450 or cpm of sera sample binding to peptide divided by the specific OD450 or cpm of NHS sample binding to peptide, which value is less than 2) | - (specific OD450 or cpm of sera sample binding to peptide divided by the specific OD450 or cpm of NHS sample binding to peptide, which value is less than 2) | - (specific OD450 or cpm of sera sample binding to peptide divided by the specific OD450 or cpm of NHS sample binding to peptide, which value is less than 2) | - (specific OD450 or cpm of sera sample binding to peptide divided by the specific OD450 or cpm of NHS sample binding to peptide, which value is less than 2) | - (specific OD450 or cpm of sera sample binding to peptide divided by the specific OD450 or cpm of NHS sample binding to peptide, which value is less than 2) | - (specific OD450 or cpm of sera sample binding to peptide divided by the specific OD450 or cpm of NHS sample binding to peptide, which value is less than 2) | - (specific OD450 or cpm of sera sample binding to peptide divided by the specific OD450 or cpm of NHS sample binding to peptide, which value is less than 2) | - (specific OD450 or cpm of sera sample binding to peptide divided by the specific OD450 or cpm of NHS sample binding to peptide, which value is less than 2) | - (specific OD450 or cpm of sera sample binding to peptide divided by the specific OD450 or cpm of NHS sample binding to peptide, which value is less than 2) | - (specific OD450 or cpm of sera sample binding to peptide divided by the specific OD450 or cpm of NHS sample binding to peptide, which value is less than 2) | - (specific OD450 or cpm of sera sample binding to peptide divided by the specific OD450 or cpm of NHS sample binding to peptide, which value is less than 2) | ++ (which value is greater than 3) | ++ (which value is greater than 3) | ++ (which value is greater than 3) | ++ (which value is greater than 3) | + (which value is between 2 to 3) | ++ (which value is greater than 3) | - (specific OD450 or cpm of sera sample binding to peptide divided by the specific OD450 or cpm of NHS sample binding to peptide, which value is less than 2) | - (specific OD450 or cpm of sera sample binding to peptide divided by the specific OD450 or cpm of NHS sample binding to peptide, which value is less than 2) | + (which value is between 2 to 3) | Percentage of sera samples demonstrating binding to peptide, non-transmitter ([1]; Non-transmitter group, n = 13): 30.7%; Percentage of sera samples demonstrating binding to peptide, transmitter ([1]; Transmitter / transmission group, n = 7): 42.8%; Percent of the maternal serum samples that bound to the peptide ([1]; all 20 samples): 35%; Number of Non-Transmitters which bound to peptide [2]: 3; Percent of Non-Transmitters which bound to peptide [2]: 25%; Number of Transmitters which bound to peptide [2]: 0; Percent of Transmitters which bound to peptide [2]: 0%
